# Tested on: human iPS cells (S2WCB1 strain, S2WCB3 strain)
# Test: Efficiency of cerebral organoid formation after step (1) maintenance culture and induction of differentiation
# Format: cell-based
# Design: Efficiency of cerebral organoid formation (%): concentration or dose not given beside the values
# Details: for Efficiency (%) of cerebral organoid formation: -Day 1 to Day 0, evaluated Day 35
# Protocol: Step (1) and step (2) were performed according to a scheme illustrated in FIG. 3 or FIG. 5. Maintenance culture of human iPS cells (S2WCB1 strain, S2WCB3 strain) was performed in StemFit culture medium on a 6-well plate coated with iMatrix-511 (feeder-free).
# The culture medium was exchanged with: • (1) a culture medium obtained by adding 5 μM SB431542 to StemFit culture medium without solution C (i.e., a bFGF-free culture medium) (FIG. 3); or • (2) Essential 6 culture medium (i.e., a bFGF-free, TGFβ-free culture medium) (FIG. 5), • and adhesion culture was performed for 1 day.
# Step (2a) Induction of differentiation into neural cells was performed in a serum-free culture medium by using a method by Sakaguchi et al. (Stem Cell Reports, 13:458-473, 2019. doi: 10.1016/j.stemcr.2019.05.029.). Specifically, human iPS cells cultured in step (1) were dispersed into single cells by enzymatic treatment. The human iPS cells dispersed into single cells were seeded on a non-cell-adhesive 96-well culture plate (PrimeSurface 96 V-bottom plate, manufactured by Sumitomo Bakelite Co., Ltd.) (9,000 cells/well/100 μL), and subjected to suspension culture with Glasgow MEM (GMEM; Thermo Fisher Scientific Inc.) culture medium supplemented with 0.1 mM non-essential amino acids, 1 mM pyruvate, 0.1 mM 2-mercaptoethanol, 20% (v/v) KnockOut (TM) serum replacement, 100 U/mL penicillin, and 100 μg/ml streptomycin (hereinafter, also referred to as 20GMK) with further addition of 5 μM SB431542 (TGFβ signaling inhibitor; Tocris Bioscience) and 3 μM IWR1e (Wnt signaling inhibitor; Calbiochem), at 37° C. under 5% CO2 for 18 days. Culture medium exchange was performed every 3 days. Y-27632 was added to reach 50 μM on Day 0, and not added in the subsequent culture medium exchanges. Through the culture, cell aggregates were eventually obtained.
# Step (2b) On Day 18, the cell aggregates obtained were transferred into a 90-mm dish, and subjected to shaking culture with an Orbital Shaker in DMEM/F12/GlutaMAX culture medium supplemented with 1×N2 supplement (Thermo Fisher Scientific Inc.), a chemically defined lipid concentrate (Invitrogen), 0.25 mg/mL fungizone (Gibco), 1% penicillin/streptomycin, and 0.1% amphotericin B at 37° C. under 20% 02 and 5% CO2 from Day 35 to Day 42. Culture medium exchange was performed every 3 to 4 days.
# Efficiency (%) of cerebral organoid formation was calculated by the following expression.
# In step (1) of the scheme in FIG. 3, culture was performed with a culture medium supplemented with any additive below during a period of −Day 1 to Day 0, induction of differentiation into neural cells was performed on Day 0, and the efficiencies of cerebral organoid formation were evaluated on Day 35. […] In FIG. 7, “None” indicates the absence of an additive.
# Under the experimental system with (1) “bFGF-free-and-SB431542-supplemented culture medium”, which was obtained by adding 5 μM SB431542 to StemFit culture medium without solution C, in Example 1, periods for culture of iPS cells with “bFGF-free-and-SB431542-supplemented culture medium” were set as in a table below.
# [1] = step (1) in bFGF-containing culture medium (StemFit with solution C)
# [2] = step (1) in bFGF-free culture medium (StemFit without solution C)
Structure (SMILES),structure of cell culture on Day 35 (immunostaining) (additive in bFGF-free culture medium in step (1) (Exp. F)),Efficiency (%) of cerebral organoid formation [1],Efficiency (%) of cerebral organoid formation [2],Efficiency of cerebral organoid formation (%) (step (1) in Essential 6 (E6) culture medium supplemented with SB431542),"Efficiency (%) of cerebral organoid formation (step (1) in bFGF-containing culture medium (StemFit with solution C), listed as SB-431542) [%]"
"O=C(Nc1cccc2cccnc12)c1ccc(N2C(=O)[C@@H]3[C@H](C2=O)[C@@H]2C=C[C@H]3C2)cc1 [IWR1e, 4-[(3aR,4S,7R,7aS)-1,3,3a,4,7,7a-hexahydro-1,3-dioxo-4,7-methano-2H-isoindol-2-yl]-N-8-quinolinyl-benzamide]",no cerebral cortex-like structure was formed,<1%,<5%,,
c1ccc2c(-c3cnn4cc(-c5ccc(N6CCNCC6)cc5)cnc34)ccnc2c1 [LDN-193189],,,<5%,,
"NC(=O)c1ccc(-c2nc(-c3ccc4c(c3)OCO4)c(-c3ccccn3)[nH]2)cc1 [SB431542, 4-[4-(1,3-benzodioxol-5-yl)-5-(2-pyridinyl)-1H-imidazol-2-yl]-benzamide]",,less than 5%,high efficiency,56.9,<5

# Reference: US20240279602A1, “METHOD FOR PRODUCING CEREBRAL CORTICAL CELL PREPARATION DERIVED FROM HUMAN PLURIPOTENT STEM CELLS” (Kyoto University, priority 2021, published 2024)
